Reference: patent US5773522A, “Polymer-bound camptothecin derivatives” (priority 1993, dated 1998)

Key:
[1] = test system: HT29/Colon Carcinoma; test: Antitumor activity in athymic mice transplanted s.c. with HT29 Colon Carcinoma; assay type: in vivo, athymic Swiss/nu/ mice; conditions: for % tumor inhib. / TOX (number of toxic deaths/total number of mice) / cured mice (tumor free mice 90 days after tumor implant): 7.5 mg/kg (CPT equivalent), iv q4dx6
Experimental: (§1) Camptothecin (CPT) was dissolved in sterile water with 10% tween.
(§2) Treatment was administered i.v. in a volume of 10 ml/kg of body weight and control mice were treated with sterile water.
HT29 Colon Carcinoma was transplanted s.c. in athymic Swiss/nu/ mice using 15-20 mg of tumor brei.
(§3) All animals were from Charles River Calco, Como, Italy.
(§4) Ten mice/group for conventional and eight for athymic mice were used.
(§5) The mouse colony was routinely tested for the absence of antibodies to a panel of pathogens including Mouse Hepatitis, Sendai Virus and Mycoplasma Pulmonis.
(§6) Tumor growth was assesed by caliper measurement and the tumor weight estimated according to Geran et al. (see: Cancer Chem.Rep., Part 3, 3 (2) ed. 3, pp 1-103, 1972). The antitumor activity is expressed as percentage of inhibition of tumor growth (%T/I) using the following formula: [formula] The median increase in survival time (T/C%) was calculated using the following formula: [formula]
Cured mice are mice without tumor at the end of the experiment.
(§7) Toxicity was evaluated on the basis of the body weight reduction and gross autopsy findings, mainly in terms of reduction of spleen and liver size.

[2] = test system: early M5076 murine reticulosarcoma; test: Antitumor activity against early M5076 murine reticulosarcoma; assay type: in vivo, C57Bl/6 mice; conditions: 7.5 mg/kg (CPT equivalent); for % tumor inhib.: estimated one week after the last treatment
Experimental: Camptothecin (CPT) was dissolved in sterile water with 10% tween. […]
(§8) M5076 muine reticulosarcoma was maintained by serial i.m. passages and transplanted s.c. (5×10^5 cells/mouse) in compatible C57Bl/6 mice.
as §3, §4
(§9) The conventional mice weighed 20 to 22 g and were kept under standard laboratory conditions.
as §5, §6, §7

[3] = test system: advanced M5076 murine reticulosarcoma; test: Antitumor activity against advanced M5076 murine reticulosarcoma; assay type: in vivo, C57Bl/6 mice; conditions: iv on day 16,20,24,28,31,35; for % tumor inhibition: estimated at day 34
Experimental: as §1, §2, §8, §3, §4, §9, §5, §6, §7

[4] = Toxicity (LD10, LD50) in healthy mice; assay type: in vivo, C57Bl/F mice; conditions: mouse, in vivo, iv, healthy C57B1/F mice; read-out: LD50 (dose inducing 50% of death mice)
[5] = test system: healthy C57Bl/F mice; test: Toxicity (LD10, LD50) in healthy mice; assay type: in vivo; conditions: i.v., healthy C57B1/F mice
[6] = background statement; cited from earlier work
[7] = Stability of polymeric conjugates in murine or human plasma (camptothecin release); assay type: in vitro ADME
Experimental: Each sample was extracted by adding 100 μl of 0.25M phosphoric acid, 500 μl CH3 CN and 700 μl ethyl acetate and vigorously shaking for 20 minutes at 4° C. After that time, the sample was spun at 15000×g for 10 minutes and the supernatant was separated. To the residue was added 300 μl of CH3 CN and 500 μl was spun at 15000×g for 10 minutes. The supernatant was separated. The organic phases were pooled and evaporated using a high vacuum centrifuge. The sample was recovered by adding 500 μl of MeOH/water pH2 (70/30 by volume) and injected into HPLC apparatus for determining the total drug percentage content.

[8] = Water solubility; assay type: physicochemical; conditions: dissolved in saline

With CC[C@@]1(O)C(=O)OCc2c1cc1n(c2=O)Cc2cc3ccccc3nc2-1 [CPT, camptothecin] the “% tumor inhib.” value [1] was 83%, the “TOX (number of toxic deaths/total number of mice)” value [1] was 0/10 and the “cured mice (tumor free mice 90 days after tumor implant)” value [1] was 0/10. The “T/C % (median increase in survival time)” value ([2]; ip 1,6,9) was 165%, the “TOX (number of toxic deaths/total number of mice)” value ([2]; ip 1,6,9) was 0/10 and the “% tumor inhib.” value ([2]; ip 1,6,9) was 100%. The “T/C % (median increase in survival time)” value ([3]; 7.5 mg/kg (CPT equivalent)) was 173%, the “TOX (number of toxic deaths/total number of mice)” value ([3]; 7.5 mg/kg (CPT equivalent)) was 0/10 and the “% tumor inhibition” value ([3]; 7.5 mg/kg (CPT equivalent)) was 72%. For the same compound, the LD50 [4] was 43.4 mg/kg, the “LD10 (dose inducing 10% of death mice)” value [5] was 16.9 mg/kg and the “solubility in vehicles suitable for parenteral administration (in words)” value [6] was “practically insoluble”.
With “Copolymer of N-(2-hydroxypropyl)methacrylamide, 20-O-[N-methacryloylglycyl -L-phenylalanyl-L-leucylglycyl] camptothecin and N-(2-hydroxypropyl) methacryloylglycinamide [Compound A2]” the “% tumor inhib.” value [1] was 96%, the “TOX (number of toxic deaths/total number of mice)” value [1] was 0/18 and the “cured mice (tumor free mice 90 days after tumor implant)” value [1] was 3/18. The “antitumor activity compared with camptothecin (in words)” value ([1]; all experiments (HT29, early and advanced M5076)) was “striking higher activity”, the “T/C % (median increase in survival time)” value ([2]; iv 1,6,9) was 171% and the “TOX (number of toxic deaths/total number of mice)” value ([2]; iv 1,6,9) was 0/10. For the same compound, the “% tumor inhib.” value ([2]; iv 1,6,9) was 100%, the “T/C % (median increase in survival time)” value ([3]; 10.0 mg/kg (CPT equivalent)) was 174% and the “TOX (number of toxic deaths/total number of mice)” value ([3]; 10.0 mg/kg (CPT equivalent)) was 0/10. For the same compound, the “% tumor inhibition” value ([3]; 10.0 mg/kg (CPT equivalent)) was 80%, the “T/C % (median increase in survival time)” value ([3]; 15.0 mg/kg (CPT equivalent)) was 183% and the “TOX (number of toxic deaths/total number of mice)” value ([3]; 15.0 mg/kg (CPT equivalent)) was 0/10. The “% tumor inhibition” value ([3]; 15.0 mg/kg (CPT equivalent)) was 95%, the “camptothecin released after plasma incubation” value (“camptothecin released” for short) ([7]; after 60 hours) was 100% and the “water solubility (in words)” value [8] was “highly water soluble”.
In the case of “Copolymer of N-(2-hydroxypropyl)methacrylamide, 20-O-[N-methacryloylglycyl-(6-aminohexanoylyl]camptothecin and N-(2-hydroxy -propyl)methacryloylglycinamide [Al]”, the “camptothecin released” value ([7]; after 120 hours) is reported as 10%.
With “Copolymer of N-(^2 -hydroxypropyl)methacrylamide) 9-amino-20-O-[N-methacryloylglycyl-L-phenylalanyl-L-leucylglycyl] campto-thecin and N-(2-hydroxypropyl)methacryloylalycinamide [Compound A3]” the “camptothecin released” value ([7]; after 50 hours) was 100%.
